Laboratory results published in ChEMBL document CHEMBL5058564, “EUbOPEN Chemogenomics Library 2 (Incucyte)” (2022).

Tests used:
Format in all cases: toxicity, cell-based
HEK-293T = test: Incucyte cell viability with HEK293T; settings: human, 10 µM, compound concentration 10 uM
Fibroblast = test: Incucyte cell viability with human fibroblast; settings: 10 µM, compound concentration 10 uM
U2OS = test: Incucyte cell viability with U2OS; settings: human, 10 µM, compound concentration 10 uM
[1] = 0 h, replicate number 1, timepoint 0 hours
[2] = 12 h, replicate number 2, timepoint 12 hours
[3] = 0 h, replicate number 2, timepoint 0 hours
[4] = 6 h, replicate number 2, timepoint 6 hours
[5] = 6 h, replicate number 1, timepoint 6 hours
[6] = 12 h, replicate number 1, timepoint 12 hours
[7] = 18 h, replicate number 2, timepoint 18 hours
[8] = 24 h, replicate number 2, timepoint 24 hours
[9] = 24 h, replicate number 1, timepoint 24 hours
[10] = 18 h, replicate number 1, timepoint 18 hours
Note: unitless GR value; below 1 slowed growth and below 0 cell loss.

Structure (SMILES) | Growth Rate (HEK-293T; [1]) | Growth Rate (HEK-293T; [2]) | Growth Rate (Fibroblast; [3]) | Growth Rate (Fibroblast; [4]) | Growth Rate (U2OS; [2]) | Growth Rate (U2OS; [7]) | Growth Rate (U2OS; [8]) | Growth Rate (HEK-293T; [3]) | Growth Rate (Fibroblast; [5]) | Growth Rate (Fibroblast; [9]) | Growth Rate (U2OS; [1]) | Growth Rate (U2OS; [3]) | Growth Rate (Fibroblast; [6]) | Growth Rate (Fibroblast; [10]) | Growth Rate (HEK-293T; [4]) | Growth Rate (HEK-293T; [10]) | Growth Rate (HEK-293T; [9]) | Growth Rate (U2OS; [10]) | Growth Rate (HEK-293T; [7]) | Growth Rate (Fibroblast; [1]) | other results
COC(=O)N1CCN(C(=O)Cc2ccc(Cl)c(Cl)c2)C(CN2CCCC2)C1.O=C(O)/C=C/C(=O)O (centres undefined) | 1 | 0.72 | 0.83 | 0.71 | 0.54 | 0.75 | 0.76 |  |  |  |  |  |  |  |  |  |  |  |  |  | Growth Rate (U2OS; [5]): 0.36; Growth Rate (U2OS; [4]): 0.4; Growth Rate (U2OS; [6]): 0.75
CC(/C=C1\SC(=S)N(CCCC(=O)Nc2ccc(C(=O)O)c(O)c2)C1=O)=C\c1ccccc1 | 0.57 |  | -0.04 |  |  |  |  | 0.54 | 0.97 | 0.83 | 0.71 | -1 |  |  |  |  |  |  |  |  | Growth Rate (U2OS; [4]): 0.79
O=C(Nc1cc(-c2ccccc2)nn1-c1ccccc1F)c1ccc([N+](=O)[O-])cc1 | 0.97 |  |  | 0.55 | 0.84 | 0.9 | 0.95 | 0.17 | -0.14 | -0.11 |  |  | 0.25 | 0.09 |  |  |  |  |  |  | Growth Rate (Fibroblast; [7]): 0.95; Growth Rate (U2OS; [4]): 0.54
COC1(C[S@@+]([O-])c2ccccc2)CCN(CCc2c[nH]c3ccc(F)cc23)CC1 | 0.79 | 0.77 |  | -0.24 |  |  |  |  | 0.42 | 0.53 | 0.42 | -1 | 0.32 | 0.49 | 0.72 | 0.91 | 0.8 |  |  |  | Growth Rate (Fibroblast; [2]): 0.15; Growth Rate (Fibroblast; [7]): 0.53; Growth Rate (Fibroblast; [8]): 0.79; Growth Rate (U2OS; [5]): -0.09
N[C@@H](CCP(=O)(O)O)C(=O)O | 0.99 | 0.88 |  |  |  | 0.78 | 0.97 |  | -0.06 |  |  | -1 | 0.45 |  | 0.79 |  |  | 0.86 |  |  | Growth Rate (HEK-293T; [8]): 0.78; Growth Rate (U2OS; [5]): 0.67; Growth Rate (U2OS; [6]): 0.39
O=C(O)c1nc2ccccc2c2[nH]c3c(I)cccc3c12 | 0.01 | 0.75 | 0.92 |  | 0.85 | 0.85 | 0.91 | 0.84 |  |  |  | -1 |  |  |  |  |  | 0.93 | 0.78 | -0.96 | Growth Rate (U2OS; [5]): 0.56
N[C@](CC1c2ccccc2Oc2ccccc21)(C(=O)O)[C@H]1C[C@@H]1C(=O)O | 0.78 |  |  | 0.73 | 0.92 |  |  | -1 |  | 0.68 |  | 0.8 |  | 0.9 |  | 0.57 | 0.69 | 0.9 |  | 0.29 | Growth Rate (HEK-293T; [5]): 0.42; Growth Rate (HEK-293T; [6]): 0.5; Growth Rate (Fibroblast; [2]): 0.93; Growth Rate (Fibroblast; [7]): 0.82; Growth Rate (Fibroblast; [8]): 0.88
CNc1nc(NCc2ncccn2)c2c(-c3ccc4ncccc4c3)c[nH]c2n1 | 0.21 | -0.1 | 0.3 |  | 0.95 | 0.56 | 0.42 | 0.76 |  | 0.06 | 0.67 |  | 0.36 | -0.14 | 0.12 | -0.23 | -0.25 | 0.27 | -0.28 | 0.14 | Growth Rate (HEK-293T; [5]): 0.37; Growth Rate (HEK-293T; [6]): -0.16; Growth Rate (U2OS; [9]): 0.4
O=C(O)C(F)(F)F.O=C1NC(=O)/C(=C/c2c[nH]c(=O)c(-c3ccc(N4CCNCC4)nc3)c2)S1 | 0.87 | 0.7 |  | 0.04 |  |  | 0.94 | 0.65 |  |  | -0.39 | -1 |  |  | 0.18 |  |  | 1 | 0.92 | 0.44 | Growth Rate (Fibroblast; [2]): 0.66; Growth Rate (Fibroblast; [7]): 0.64; Growth Rate (Fibroblast; [8]): 0.71; Growth Rate (U2OS; [5]): 0.45; Growth Rate (U2OS; [6]): 0.51
O=C(Nc1cc(C(F)(F)F)ccc1N1CCN(Cc2ccccn2)CC1)c1ccc(-c2ccncc2)o1 | 0.95 | -0.05 |  | -0.21 | 0.93 | 0.83 | 0.76 | 0.73 | 0.13 | 0.21 | -0.79 | -1 | -0.19 | 0.1 | 0.41 | -0.1 | -0.03 |  | -0.19 | 0.86 | Growth Rate (HEK-293T; [5]): 0.44; Growth Rate (HEK-293T; [6]): -0.16; Growth Rate (HEK-293T; [8]): -0.11; Growth Rate (Fibroblast; [2]): 0.06; Growth Rate (Fibroblast; [7]): 0.16; Growth Rate (Fibroblast; [8]): 0.56
Cc1nc(C#Cc2cccnc2)cs1.Cl | 0.27 | 0.87 | 0.91 | 0.58 | 0.84 |  |  | 0.23 | 0.49 | 0.25 | 0 | 0.3 | 0.32 | 0.37 |  | 0.84 | 0.76 | 0.97 | 0.94 |  | Growth Rate (HEK-293T; [5]): 0.68; Growth Rate (HEK-293T; [6]): 0.63; Growth Rate (HEK-293T; [8]): 0.73; Growth Rate (U2OS; [4]): 0.72
O=C1NC(=Nc2c(Cl)cccc2Cl)S/C1=C\c1ccc2nccnc2c1 | 0.36 | -0.06 | 0.72 | 0.79 | 0.54 | 0.57 | 0.59 | 0.37 | 0.24 | 0.39 |  | -0.91 | 0.09 | 0.4 | 0.18 | 0.07 | 0.26 | 0.55 | 0.05 | 0.9 | Growth Rate (HEK-293T; [5]): 0.34; Growth Rate (HEK-293T; [6]): 0.15; Growth Rate (HEK-293T; [8]): 0.15; Growth Rate (Fibroblast; [2]): 0.32; Growth Rate (Fibroblast; [7]): 0.61; Growth Rate (Fibroblast; [8]): 0.48; Growth Rate (U2OS; [5]): 0; Growth Rate (U2OS; [4]): 0.81; Growth Rate (U2OS; [6]): 0.33; Growth Rate (U2OS; [9]): 0.63
COc1ccc2nc3ccc(OC)cc3c(SCCCN)c2c1.Cl | -0.05 | 0.33 | 0.39 |  | 0.2 | 0.16 | 0.21 | -0.25 | 0.94 |  | -0.75 | -0.3 |  |  | 0.26 | 0.19 | 0.28 | 0.19 | 0.22 | 0.15 | Growth Rate (HEK-293T; [5]): -0.57; Growth Rate (HEK-293T; [6]): -0.16; Growth Rate (HEK-293T; [8]): 0.19; Growth Rate (U2OS; [6]): 0.7; Growth Rate (U2OS; [9]): 0.14
O=C1NC(NC23CC4CC(CC(C4)C2)C3)=N/C1=C\c1ccc2ncsc2c1 | -0.13 | 0.24 | 0.36 |  |  | 0.88 | 0.7 | -0.17 |  |  | -0.86 | -1 |  |  |  | 0.03 | 0.01 | 0.56 | 0.09 | -0.85 | Growth Rate (HEK-293T; [6]): 0.28; Growth Rate (HEK-293T; [8]): 0.06; Growth Rate (U2OS; [9]): 0.62
COc1cc(Br)c(S(=O)(=O)Nc2ccc(C(F)(F)F)c(O[C@@H]3CCN(C)C3)c2)cc1OC | 0.96 | 0.38 |  | -0.63 |  | 1 |  |  | -0.5 | -0.01 |  | -1 | -0.19 | -0.12 | 0.09 |  |  | 0.61 | 0.94 |  | Growth Rate (Fibroblast; [2]): -0.22; Growth Rate (Fibroblast; [7]): 0.19; Growth Rate (Fibroblast; [8]): 0.1; Growth Rate (U2OS; [5]): 0.02; Growth Rate (U2OS; [9]): 0.77
